ChEMBL document CHEMBL1201862, “PubChem BioAssay data set” (2004)
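Where inhibition never reached the appropriate level, the endpoint shown equals the highest concentration tested. Otherwise, values were interpolated linearly from a five-concentration, 48-hour dose response in 96-well plates. GI50: concentration for 50% inhibition of growth.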 Active and inactive are the calls of the source. No stated cut-off is given here; in the data, active = GI50 up to about 1.1 µM and inactive = higher.

What was measured:
Experiment in all cases: inhibition of tumour cell growth, NCI panel, 48 h
[1] = system: OVCAR-4
[2] = system: MDA-MB-435
[3] = system: UACC-257
[4] = system: A498
[5] = system: IGROV-1
[6] = system: SK-MEL-2
[7] = system: HCC 2998
[8] = system: 786-0
[9] = system: A549
[10] = system: RXF 393
[11] = system: NCI-H23
[12] = system: DU-145
[13] = system: RPMI-8226
[14] = system: TK-10
[15] = system: ACHN
[16] = system: Malme-3M
[17] = system: NCI-H522
[18] = system: HT-29
[19] = system: SK-MEL-5
[20] = system: PC-3

| SMILES | GI50 [1] | GI50 [2] | GI50 [3] | GI50 [4] | GI50 [5] | GI50 [6] | GI50 [7] | GI50 [8] | GI50 [9] | GI50 [10] | GI50 [11] | GI50 [12] | GI50 [13] | GI50 [14] | GI50 [15] | GI50 [16] | GI50 [17] | GI50 [18] | GI50 [19] | GI50 [20] |
| --- | --- | --- | --- | --- | --- | --- | --- | --- | --- | --- | --- | --- | --- | --- | --- | --- | --- | --- | --- | --- |
| C=C1C(=O)C2=CC1CCC(=O)C1(C)CCC(OC(C)=O)C(C)(C)C1CC2O (stereo not given) | 2.17 µM (inactive) | 3.24 µM (inactive) | 3.73 µM (inactive) | 3.18 µM (inactive) | 3.03 µM (inactive) | 5 µM (inactive) | 1.95 µM (inactive) | 3.01 µM (inactive) | 4.38 µM (inactive) | 2.23 µM (inactive) | 2.64 µM (inactive) | 3.03 µM (inactive) | 2.53 µM (inactive) | 5.86 µM (inactive) | 1.12 µM (inactive) | 2.37 µM (inactive) | 0.522 µM (active) | 1.35 µM (inactive) | 1.82 µM (inactive) | 7.19 µM (inactive) |
| Cc1ccc(C)n1-c1ccccc1C1C=CN(C(=O)OC(C)(C)C)C=C1 | 71.4 µM (inactive) | 36.2 µM (inactive) | 34.7 µM (inactive) | 50.5 µM (inactive) | 31.4 µM (inactive) | 16.9 µM (inactive) | 17.3 µM (inactive) | 31.8 µM (inactive) | 31.1 µM (inactive) | 19.6 µM (inactive) | 27.5 µM (inactive) | 56.4 µM (inactive) | 20.4 µM (inactive) | 67.3 µM (inactive) | 32.6 µM (inactive) | 15.7 µM (inactive) | 16.6 µM (inactive) | 12.1 µM (inactive) | 33.4 µM (inactive) | 25.9 µM (inactive) |
| COc1ccc(/C=N/NC(=O)O)cc1 | > 100 µM (inactive) | > 100 µM (inactive) | > 100 µM (inactive) | > 100 µM (inactive) | > 100 µM (inactive) | > 100 µM (inactive) | 88.5 µM (inactive) | > 100 µM (inactive) | > 100 µM (inactive) | > 100 µM (inactive) | > 100 µM (inactive) | > 100 µM (inactive) | > 100 µM (inactive) | > 100 µM (inactive) | > 100 µM (inactive) | > 100 µM (inactive) | > 100 µM (inactive) | > 100 µM (inactive) | > 100 µM (inactive) | > 100 µM (inactive) |
| CC1CC(=O)Nc2ccccc2N1C(=O)C1CC1 (stereo not given) | > 100 µM (inactive) | > 100 µM (inactive) | > 100 µM (inactive) | > 100 µM (inactive) | > 100 µM (inactive) | > 100 µM (inactive) | > 100 µM (inactive) | > 100 µM (inactive) | > 100 µM (inactive) | > 100 µM (inactive) | > 100 µM (inactive) | > 100 µM (inactive) | > 100 µM (inactive) | > 100 µM (inactive) | > 100 µM (inactive) | > 100 µM (inactive) | > 100 µM (inactive) | > 100 µM (inactive) | > 100 µM (inactive) | > 100 µM (inactive) |
| O=C(NCCCNCCCCNCCCNC(=O)c1cc(-c2ccccc2)nc2ccccc12)c1cc(-c2ccccc2)nc2ccccc12 | 2.64 µM (inactive) | 1.8 µM (inactive) | 3.74 µM (inactive) | 20.7 µM (inactive) | 2.16 µM (inactive) | 1.62 µM (inactive) | 2.01 µM (inactive) | 1.69 µM (inactive) | 2.12 µM (inactive) | 3.69 µM (inactive) | 3 µM (inactive) | 17.6 µM (inactive) | 2.16 µM (inactive) | 8.07 µM (inactive) | 18.5 µM (inactive) | 1.95 µM (inactive) | 2.01 µM (inactive) | 1.91 µM (inactive) | 2.61 µM (inactive) | 2.12 µM (inactive) |
| Cc1cccc2c(N)c3cccc(C(=O)NCCN4CCOCC4)c3nc12 | 0.762 µM (active) | 0.57 µM (active) | 0.912 µM (active) | 1.31 µM (inactive) | 0.224 µM (active) | 1.11 µM (active) | 1.48 µM (inactive) | 0.218 µM (active) | 0.192 µM (active) | 0.697 µM (active) | 0.33 µM (active) | 0.482 µM (active) | 0.493 µM (active) | 2.1 µM (inactive) | 0.101 µM (active) | 0.28 µM (active) | 0.182 µM (active) | 0.116 µM (active) | 0.853 µM (active) | 0.436 µM (active) |
| N#CCCN(CCC#N)c1ccc(/C=C2\SC(=S)NC2=O)cc1 | 30.8 µM (inactive) | > 100 µM (inactive) | > 100 µM (inactive) | 57.1 µM (inactive) | > 100 µM (inactive) | > 100 µM (inactive) | > 100 µM (inactive) | 30 µM (inactive) | > 100 µM (inactive) | 37.9 µM (inactive) | > 100 µM (inactive) | > 100 µM (inactive) | > 100 µM (inactive) | 85.3 µM (inactive) | 41.5 µM (inactive) | > 100 µM (inactive) | > 100 µM (inactive) | > 100 µM (inactive) | > 100 µM (inactive) | > 100 µM (inactive) |
| Cc1ccc(CC(Cc2ccccc2C)C(=O)O)c(C(=O)O)c1 (stereo not given) | > 100 µM (inactive) | > 100 µM (inactive) | > 100 µM (inactive) | > 100 µM (inactive) | > 100 µM (inactive) | > 100 µM (inactive) | > 100 µM (inactive) | > 100 µM (inactive) | > 100 µM (inactive) | > 100 µM (inactive) | > 100 µM (inactive) | > 100 µM (inactive) | > 100 µM (inactive) | > 100 µM (inactive) | > 100 µM (inactive) | > 100 µM (inactive) | > 100 µM (inactive) | > 100 µM (inactive) | > 100 µM (inactive) | > 100 µM (inactive) |
| CCCC[C@H]1C(=O)O[C@H](C)[C@H](NC(=O)c2cccc(NC=O)c2O)C(=O)O[C@@H](C)[C@@H]1OC(=O)CC(C)C [ANTIMYCIN A3] | 2.37 µM (inactive) | 1.11 µM (active) | 0.04 µM (active) | 4.23 µM (inactive) | 3.94 µM (inactive) | 1.97 µM (inactive) | 10.9 µM (inactive) | 9.08 µM (inactive) | 0.0441 µM (active) | 6.49 µM (inactive) | 0.294 µM (active) | 3.55 µM (inactive) | 0.109 µM (active) | 6.79 µM (inactive) | 1.15 µM (inactive) | 7.28 µM (inactive) | 5.93 µM (inactive) | 1.6 µM (inactive) | < 0.01 µM (active) | 0.278 µM (active) |
| O=C(O)Cc1ccccc1 [PHENYLACETIC ACID] | > 100 µM (inactive) | > 100 µM (inactive) | > 100 µM (inactive) | > 100 µM (inactive) | > 100 µM (inactive) | > 100 µM (inactive) | > 100 µM (inactive) | > 100 µM (inactive) | > 100 µM (inactive) | > 100 µM (inactive) | > 100 µM (inactive) | > 100 µM (inactive) | > 100 µM (inactive) | > 100 µM (inactive) | > 100 µM (inactive) | > 100 µM (inactive) | > 100 µM (inactive) | > 100 µM (inactive) | > 100 µM (inactive) | > 100 µM (inactive) |
